Experimental data reported in a melting point compilation (Tetko et al.; mined from patent text by program, amines drawn as free bases though some values may be those of a salt).
Residues, ends and D or L forms follow the SMILES beside them. *: point of attachment. Boc = CC(C)(C)OC(=O)*

Row | Structure (SMILES) | melting point [°C]
1 | Cc1cc(C)c(Cc2ccc(C(C)C)cc2)c(OCC(=O)O)c1 | 104 to 105
2 | CC1(C2OCCO2)C=CC(C#N)=CC1 (stereo not drawn) | 70
3 | O=C(Nc1ccc(Cl)c(Cl)c1)OC1CN2CCC1CC2 (stereo not drawn) | 181 to 184
4 | CC(=O)N(O)C(C)c1ccc2c(c1)oc1ccccc12 (stereo not drawn) | 132 to 135
5 | CCOC(=O)/C=C/C(C)(C)NC(=O)OC(C)(C)C | 40 to 41
6 | O=[N+]([O-])c1ccc(NCC23CCCN2CCC3)c2ccccc12 | 143 to 144
7 | COc1ccc(Sc2ccc([N+](=O)[O-])cc2)c(Cl)c1Cl | 236 to 237
8 | CCCCCC(=O)c1c(C)n(C(=O)OC)c(=O)n1C(=O)OC | 84 to 86
9 | Cc1ccc(F)c2c1N(CC(=O)Nc1ccccc1F)C(=O)C21COc2cc3c(cc21)CCO3 (stereo not drawn) | 250 to 255
10 | O=C1c2ccccc2C(=O)N1CCCC#Cc1ccccn1 | 127 to 129
11 | O=C(O)CCCc1ccc(C(=O)CCCc2ccccc2)cc1 | 111 to 112
12 | Cn1nccc1CCS(=O)(=O)Cc1ccc(OCc2coc(C=Cc3ccc(C(F)(F)F)cc3)n2)cc1 | 204
13 | C#Cc1ccc2nc(Cl)c(S(=O)(=O)N=CN(CC(C)C)CC(C)C)n2n1 | 166 to 168
14 | CC(=O)NCCCCOC1c2ccccc2C(=O)N1c1ccc2ccc(Cl)nc2n1 (stereo not drawn) | 120
15 | CCOC(=O)c1nnc(SC)nc1NCc1ccc(OC)c(Cl)c1 | 101 to 105
16 | CC(C)N=C(NC#N)Nc1cc(C(F)(F)F)cc(C(F)(F)F)c1 | 176 to 182
17 | CCC(=O)Nc1cccc(NC(=O)C=C(C)OC)c1 | 155
18 | CC(C)N1C(=O)c2ccccc2N(C(=O)C(C)(C)C)S1(=O)=O | 97.5 to 99.5
19 | COc1ccc(CCc2oc3ccc(Br)cc3c2CO)cc1 | 65 to 75
20 | CN1CCN(c2ccc(C#N)c3ccccc23)CC1 | 128 to 129
21 | CCN1c2ncccc2C(=O)Nc2c1nc(N(C)C)c(Br)c2C | 184 to 186
22 | C(=C\c1nc(COc2ccc(CCCCn3ccnn3)cc2)co1)/c1ccccc1 | 125 to 126
23 | CC1CC(C)C(C)(C)c2ccc(-c3cccc(-c4ccc(C(=O)O)cc4)c3O)cc21 (stereo not drawn) | 121
24 | Sc1nc2ccc(Cl)cc2c2nc(-c3ccc(Br)o3)nn12 | 273 to 276
25 | COC(=O)C(Cc1ccccc1)NC(=O)C(Cc1ccccc1)NC(=O)C(CC(N)=O)NC(=O)CNC(=O)OC(C)(C)C (stereo not drawn) (Boc-GNFF-OMe; configuration not given here) | 211 to 214

Row | Structure (SMILES) | melting point [°C]
26 | CC(C)(C)c1ccc([N+](=O)[O-])c(C(=O)O)c1 | 137 to 139
27 | CCCCCCCCCCCCCCCCCC(=O)OC1CC(C)(C)N(OC(C)=O)C(CC)(CC)C1 (stereo not drawn) | 41 to 44
28 | C#CCOc1nsc(SC(F)F)c1C#N | 83 to 84
29 | CCOC(=O)c1c(C)nn(C)c1CS(=O)(=O)NC(=O)Nc1nc(OC)cc(OC)n1 | 190
30 | N[C@@H](CSCC1CCN(C(=O)OCc2ccccc2)CC1)C(=O)O | 187 to 190
31 | O=C(Nc1cccc(C(F)(F)F)c1)c1ccccc1NCc1ccc(=O)[nH]c1 | 171 to 172
32 | CCCC1=NN(c2ccccc2C(=O)O)C(=O)C1=CNc1ccccc1CC | 127
33 | CS(=O)(=O)N1CCN(c2ccc(N)cc2)CC1 | 192 to 193
34 | CNC(=O)Cc1c(-c2ccc(C)cc2)nn2cccnc12 | 207 to 208
35 | CCCCOc1c(C(OC(N)=O)C(C)(C)C)n(CC(C)(C)C)c(=O)c2ccc(OCC)cc12 (stereo not drawn) | 138 to 139
36 | CC1(C)CC(O)c2cc(OCc3ccccc3)ccc2O1 (stereo not drawn) | 83 to 84
37 | CCCC(=O)c1cnc2c(C)cccc2c1Nc1ccccc1C | 110 to 112
38 | COC(=O)C(C)(C)Nc1nc(Cl)ccc1[N+](=O)[O-] | 96 to 97
39 | COc1ccc(S(C)(=O)=O)cc1C(=O)O | 189 to 191
40 | OCCNc1cc(N2CCCC2)nc(N2CCCC2)n1 | 150 to 152
41 | O=C(O)c1csc2c(=O)cc(-c3ccccc3)oc12 | 282 to 283
42 | CCCCCCCCCCCCCCCCSCC(CNS(=O)(=O)CCCI)NC(=O)NC (stereo not drawn) | 70 to 71
43 | CC12CCC3c4cc([N+](=O)[O-])c(OCc5ccccc5)cc4CCC3C1CCC2=O (stereo not drawn) | 234 to 235
44 | COc1ccccc1CCN1CC(=O)N(c2cnn(Cc3c(C)noc3C)c2)C1=O | 97 to 98
45 | N#CC1=CSCC1Nc1c(Cl)cccc1Cl (stereo not drawn) | 170 to 173
46 | CN1Cc2c(CCl)ncn2-c2ccccc2C1=O | 277 to 280
47 | N#CC1=C(c2cccs2)Nc2n[nH]cc2C1c1cccc(Cl)c1Cl (stereo not drawn) | 232
48 | N#Cc1ccc(Cn2cncn2)c(-c2ccc(O)c(Cl)c2)c1 | 243 to 245
49 | CCC(c1oc2ccc(F)cc2c(=O)c1-c1ccccc1)n1cnc2c(N)ncnc21 (stereo not drawn) | 266 to 272
50 | CC(=O)Nc1ccc(C(=O)c2c(N)sc3c2CCN(Cc2ccccc2)C3)cc1 | 119 to 120

Row | Structure (SMILES) | melting point [°C]
51 | N#CCc1ccc(CCOc2ccc([N+](=O)[O-])cc2)nc1 | 94 to 95
52 | Cc1cc(C(C)(C)CC(C)(C)C)c(O)c(C)c1CC(N)=O | 179 to 181
53 | Cc1ccc(-c2ccccc2C(=O)NCCC#N)cc1 | 102 to 104
54 | COc1ccc(-c2csc(Nc3ncccc3C)n2)cc1OC | 264 to 266
55 | CCOC(=O)[C@@H](O)CCNC(=O)[C@@H](CSC(C)=O)Cc1ccccc1C | 48 to 52
56 | O=C1CC(NCCCOc2cccc(CN3CCCCC3)c2)=Nc2ccccc21 | 171 to 172
57 | Cc1cc([N+](=O)[O-])ccc1C(=O)Nc1ccc2ccc(Cl)nc2n1 | 229
58 | COC(=O)C1=C(CC(=O)N2CCN(C)CC2)NC(CS(=O)c2ccccc2C)=C(C(=O)OC)C1c1c(Cl)cccc1Cl (stereo not drawn) | 183
59 | CCCc1cc(Cl)cc2nc(Cc3ccc(OC)c(OC4CCCC4)c3)oc12 | 54 to 55
60 | Cc1cc(-n2ccnc2)c2cccc(OCc3c(Cl)ccc(S(=O)(=O)N4CCC[C@H]4C(=O)N(C)CCN(C)C)c3Cl)c2n1 | 98
61 | CC(C)NOC(=O)c1n[nH]c2c(=O)[nH]c3cc(Cl)ccc3c(=O)c12 | 224
62 | COC(=O)C(C)NC(=O)Cc1cc(C)c(C(=O)c2ccc(Cl)cc2)n1C (stereo not drawn) | 163 to 165
63 | O=C(O)CCc1cn(Cc2ccc(OCc3ccc4ccccc4n3)nc2)nc1-c1ccccc1 | 166 to 167
64 | CCc1nc2ccccc2c(=O)o1 | 83.9
65 | Cc1c(C)c2c(c(C)c1N)CC(C)(CN1CCN(C(=O)C(c3ccccc3)c3ccccc3)CC1)O2 (stereo not drawn) | 113 to 115
66 | COc1ccc(-c2nc(CCO)nc3cc(OC)c(OC)cc23)cc1OC | 165 to 166
67 | CCOC(=O)C(Cc1ccccc1CCCBr)(NC(C)=O)C(=O)OCC | 73 to 74.5
68 | Cc1cc2c(NCc3ccc4c(c3)OCO4)nc(-n3ccnc3)nc2s1 | 162
69 | O=P1(c2ccc(Oc3ccccc3)cc2)c2ccccc2CN1c1ccccc1 (stereo not drawn) | 207 to 208
70 | CC(=CCc1c(C)c(N=Nc2ccc([N+](=O)[O-])cc2[N+](=O)[O-])c2ccccc2c1O)CCCC(C)CCCC(C)CCCC(C)C (stereo not drawn) | 110
71 | CCN(CC)CC(O)Cn1ccnc1[N+](=O)[O-] (stereo not drawn) | 92 to 93
72 | CCCc1c(OCCCS(=O)(=O)c2ccc(C(=O)O)cn2)ccc(C(C)=O)c1O | 177 to 179
73 | N#Cc1cc(Br)cc(-c2ccsc2)c1 | 62 to 63
74 | O=C(C=Cc1cccc(Cl)c1)C=Cc1cccc(Cl)c1 | 120 to 121
75 | Nc1cc(S(=O)(=O)CCO)ccc1Nc1ccc(N)c(S(=O)(=O)O)c1 | 254

Row | Structure (SMILES) | melting point [°C]
76 | CCn1c([N+](=O)[O-])cnc1C=CN(C)C | 124 to 125
77 | COc1ccc(C(CN(C)C)C2(O)C=CCCC2)cc1 (stereo not drawn) | 128 to 130
78 | Cc1cc(C)c(C(C)(CO)c2ccc(C(C)C)cc2)c(O)c1C (stereo not drawn) | 116 to 117
79 | CN1CCN(c2ccc(F)cc2C=C2CCCN(c3ccc(Cl)c(Cl)c3)C2=O)CC1 | 161 to 162
80 | Cc1nc2n(C)ccn2c(=O)c1CCCl | 198
81 | O=C(OCCN1C(=O)C=C(c2ccccc2)C1=O)c1cc([N+](=O)[O-])cc([N+](=O)[O-])c1 | 179 to 181
82 | CC(C)(C)C(=O)COc1nn(CC#N)c(-c2ccc(S(C)(=O)=O)cc2)c1-c1ccc(F)cc1 | 156 to 159
83 | COc1ccc2[nH]c3c(C(=O)O)cccc3c2c1 | 262
84 | COc1cc2c(cc1Nc1ncc(Cl)c(Nc3ccccc3S(=O)(=O)N(C)C)n1)CCN(C(=O)CN1CCOCC1)CC2 | 84 to 95
85 | CCCCOc1cc(/C=C(\OCC)C(=O)O)ccc1OCCc1ccc(OS(C)(=O)=O)c(OC)c1 | 97
86 | Cc1cc2c(-c3ccccc3Cl)c(NC(=O)Nc3cccc(C(F)(F)F)c3)c(=O)n(C)c2cc1C | 175 to 176
87 | NCC1CCn2c(c(C3=C(c4cccc(C(F)(F)F)c4)C(=O)NC3=O)c3ccccc32)C1 (stereo not drawn) | 202 to 204
88 | CC(C)(N)CNC(=O)Cc1ccccc1 | 68 to 71
89 | CC(C)(C)C(=O)C(CS(=O)(=O)c1ccc(Cl)cc1)n1cncn1 (stereo not drawn) | 134
90 | c1cc(Cc2cc3ccccc3[nH]2)cc(-c2cc3ccccc3[nH]2)c1 | 193 to 194
91 | CC(C)(C)c1ccc(NC=CS(=O)(=O)F)cc1 | 67 to 70.5
92 | COC(=O)c1c(-c2cc(C)c(O)c(C)c2)c(C)n2c1-c1cc(OC)c(OC)cc1CC2C (racemic) | 177 to 179
93 | COC(=O)CCCOc1ccc2ccc(O)cc2c1 | 122 to 125
94 | CCCN1CC(OCC2CC2)(C(F)(F)F)c2cc(Cl)ccc2NC1=O (stereo not drawn) | 156 to 158
95 | CC(SC1COC(c2ccc(C(=O)Nc3ccc(C(F)(F)F)cc3)cc2)OC1)C(O)(Cn1cncn1)c1ccc(F)cc1F (stereo not drawn) | 210
96 | Fc1cc(Cn2cncn2)cc2c1Cc1c(-c3ccsc3)n[nH]c1-2 | 236 to 239
97 | CCc1nn(C2CCCC2)c2c1CCn1c-2nnc1C(C)(C)C | 150 to 151
98 | O=C(c1cccc(C(F)(F)F)c1)c1ncccc1C(O)=NNc1c(Cl)cc(C(F)(F)F)cc1Cl | 92 to 96
